Source: patent US20230241226A1, “COMPOUNDS FOR TARGETED DEGRADATION OF CARRIER PROTEINS AND USES THEREOF” (CeMM - Forschungszentrum für Molekulare Medizin GmbH, priority 2019, published 2023)

Key:
[1] = target: T1, dTAG-HA SLC1A5 (Homo sapiens, UniProt Q15758+Q96SW2); assay: Targeted degradation of dTAG-tagged SLC1A5 (western blot); type: cell-based; settings: 0.5 µM
T1 construct: expressed in transfected cells; also LOVO, SW620, CAKI, SW480
Procedure: (C)HAP1 cells expressing dTAG-HA SLC1A5, 2A3, 30A9, 35B2, MTCH2, and 33A1 were treated for 24 hours with 0.5 µM of dTAG7 or dTAG13, as indicated. HAP1 cells expressing dTAG-HA SLC2A1 and 16A1 were treated for 24 hrs with 0.5 µM of dTAG7. HAP1 cell lines expressing dTAG-HA SLC39A7, dTAG-HA SLC4A4, and SLC7A3-dTAG-HA were treated for 48 hrs with 0.5 µM of dTAG13.
SLC1A5, SLC2A1, SLC2A3, SLC16A1, SLC38A1, SLC38A2 were obtained as gateway-compatible pENTR/pDONR vectors from the Harvard PlasmID Repository. SLC39A7 was obtained from Dharmacon, GE Healthcare. The following vectors were synthesized by Genescript: SLC4A4, SLC7A3, SLC38A9, SLC25A1, SLC9A1, SLC9A2, SLC9A3, SLC9A4, SLC9A5, SLC9A6, SLC9A7, SLC9A8, and SLC9B2. […]
For immunoblotting, whole cell extracts were prepared using RIPA lysis buffer (25 mM Tris/HCl pH 7.6, 150 mM NaCl, 1% NP-40, 1% sodium deoxycholate, 0.1% SDS, EDTA-free protease inhibitor (Roche) and phosphatase inhibitors 2+3 (Sigma- Aldrich)). […] Protein extracts were quantified and normalized using the BCA assay (Thermo Scientific). […]
SLCs were ectopically expressed as fusions to a mutated FKBP domain, also known as the dTAG system. […]

[2] = tested on: dTAG-HA SLCs; assay: dTAG-driven SLC degradation, statements across SLCs (temporal control, chemical rescue); type: cell-based, human; settings: dTAG-tagged SLCs; FIGS. 5E and F
Procedure: (D)Chemical “rescue” of dTAG-driven degradation of SLCs. HAP1 cell lines expressing dTAG-HA SLC1A5 or dTAG-HA SLC38A9 were treated with 0.5 µM dTAG7 for 12 or 18 hours, respectively. These cells were also treated with chloroquine (CQ, 50 µM), bortezomib (bort., 1 µM), MG-132 (MG, 1 µM), MLN4924 (MLN, 1 µM), pomalidomide (poma., 10 µM), or bafilomycin A1 (bafi., 2.5 µM). SLC degradation was rescued by inhibiting CRL activity or the proteasome, but not by inhibiting the lysosome machinery.
Western blotting with antibodies against the HA-tag and the total protein mirrored the observed pattern.
(D) Chemical “rescue” of dTAG driven degradation. HAP1 cell lines expressing dTAGHA SLC2A3, 39A7, […], and MTCH2 were treated with 0.5 µM dTAG7 for 12 hours. A cell line expressing dTAG-HA SLC38A2 was treated with 0.5 µM dTAG7 for 18 hours. These cells were treated with MLN4924 (MLN, 1 µM), pomalidomide (poma., 10 µM), or bafilomycin A1 (bafi., 2.5 µM) to monitor the inhibition of degradation.
For immunoblotting, whole cell extracts were prepared using RIPA lysis buffer (25 mM Tris/HCl pH 7.6, 150 mM NaCl, 1% NP-40, 1% sodium deoxycholate, 0.1% SDS, EDTA-free protease inhibitor (Roche) and phosphatase inhibitors 2+3 (Sigma- Aldrich)). Cell extracts were incubated for 15 min on ice in 50 µL RIPA buffer. Lysates were cleared by centrifugation (20,000 g, 10 min, 4° C.). Protein extracts were quantified and normalized using the BCA assay (Thermo Scientific). Where indicated, cleared lysates where treated with the enzyme PNGase (NEB) to deglycosylate the proteins. Lämmli Sample Buffer 4x was added to protein extract samples without boiling. Cell lysates were run on SDS-polyacrylamide gel in tris-glycine running buffer and transferred to nitrocellulose membranes Amersham Protran 0.45 µm (GE Healthcare), according to standard methods. The membranes were incubated with the antibodies indicated below and visualized with horseradish peroxidase-conjugated secondary antibodies (described below) using the ECL Western blotting system (Thermo Scientific). The following antibodies were used: GAPDH (Santa Cruz, sc-365062), Actin (Cyoskeleton Inc., #AAN01), HA (Covance, cat #MMS-101R), HA (Cell Signaling, #3724), HA7-HRP (Sigma, H6533), HA (Roche, #11867423001), SLC9A1 (Santa Cruz, sc-136239), SLC2A1 (Cell Signaling, #12939), SLC38A1 (Cell Signaling, #36057). Secondary antibody for imaging goat anti-Rat IgG Alexa Fluor 488 (ThermoFisher, A11006). The following secondary antibodies were used for immunoblotting: goat anti-mouse HRP (115-035-003, Jackson ImmunoResearch) and goat anti-rabbit HRP (111-035-003, Jackson ImmunoResearch).
SLCs were ectopically expressed as fusions to a mutated FKBP domain, also known as the dTAG system. In brief, a dTAGed protein is amenable to degradation by specific chimeric degrader molecules (e.g. dTAG7/dTAG13) that simultaneously bind to the dTAG and the CRL4CRBN E3 ligase, inducing molecular proximity and ensuing degradation by the proteasome. Given that SLCs were expressed in all cellular compartments, the amenability of differentially located SLCs to targeted proteolysis was tested (FIG. 1A, upper graph). Each of the tested SLCs was stably expressed in HAP1 cells, and subcellular localization was assessed by immunofluorescence microscopy (FIG. 1B). In detail, SLCs located at the cell surface (SLC1A5, SLC38A1, SLC2A1, SLC2A3, SLC16A1, SLC4A4, SLC7A3), cell surface and vesicles (SLC38A2), lysosome (SLC38A9), Golgi (SLC35B2, SLC33A1), mitochondria (SLC25A26, SLC25A1, and MTCH2) and endoplasmic reticulum (SLC39A7, SLC30A9) were assayed. Cellular treatment with a specific degrader molecule (dTAG7 or dTAG13) led to identification of SLCs expressed at cell surface, endoplasmic reticulum and lysosome that were amenable to targeted degradation (FIGS. 1C, 5A). The dTAG could be placed on either N- or C-terminus of the SLC, if both face the cytoplasm (FIG. 5B), as exemplified by SLC2A3. […]

T1 sequence (Q15758 with tags, fused parts or gaps): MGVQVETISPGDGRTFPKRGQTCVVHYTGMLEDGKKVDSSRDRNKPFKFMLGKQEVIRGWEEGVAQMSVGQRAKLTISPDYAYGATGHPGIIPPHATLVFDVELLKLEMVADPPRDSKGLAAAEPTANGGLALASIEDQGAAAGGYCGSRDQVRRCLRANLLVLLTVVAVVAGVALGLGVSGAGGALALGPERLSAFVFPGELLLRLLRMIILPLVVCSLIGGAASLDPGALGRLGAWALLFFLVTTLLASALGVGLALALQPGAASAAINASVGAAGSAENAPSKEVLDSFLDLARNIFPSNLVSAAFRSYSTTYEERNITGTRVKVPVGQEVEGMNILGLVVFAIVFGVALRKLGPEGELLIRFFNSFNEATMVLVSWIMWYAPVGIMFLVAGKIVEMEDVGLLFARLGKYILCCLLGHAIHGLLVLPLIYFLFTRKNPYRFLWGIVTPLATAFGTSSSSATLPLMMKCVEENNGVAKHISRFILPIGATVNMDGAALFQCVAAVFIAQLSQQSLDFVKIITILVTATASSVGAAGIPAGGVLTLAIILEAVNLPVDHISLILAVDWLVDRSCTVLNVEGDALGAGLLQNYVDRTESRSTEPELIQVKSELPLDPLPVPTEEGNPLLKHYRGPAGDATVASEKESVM
T1 sequence (Q96SW2 whole entry): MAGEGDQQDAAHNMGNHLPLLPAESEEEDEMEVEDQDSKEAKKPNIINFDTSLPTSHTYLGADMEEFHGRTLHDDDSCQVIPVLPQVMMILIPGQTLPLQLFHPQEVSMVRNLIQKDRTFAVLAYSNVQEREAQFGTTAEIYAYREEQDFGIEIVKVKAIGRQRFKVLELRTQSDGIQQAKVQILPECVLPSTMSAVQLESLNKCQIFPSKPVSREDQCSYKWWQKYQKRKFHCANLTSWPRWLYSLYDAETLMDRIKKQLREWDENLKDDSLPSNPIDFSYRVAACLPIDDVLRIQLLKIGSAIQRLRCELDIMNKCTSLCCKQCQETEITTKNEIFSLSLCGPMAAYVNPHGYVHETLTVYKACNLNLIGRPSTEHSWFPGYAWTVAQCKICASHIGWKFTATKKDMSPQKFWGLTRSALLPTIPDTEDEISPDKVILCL
T1 sequence (Q16531 whole entry partner): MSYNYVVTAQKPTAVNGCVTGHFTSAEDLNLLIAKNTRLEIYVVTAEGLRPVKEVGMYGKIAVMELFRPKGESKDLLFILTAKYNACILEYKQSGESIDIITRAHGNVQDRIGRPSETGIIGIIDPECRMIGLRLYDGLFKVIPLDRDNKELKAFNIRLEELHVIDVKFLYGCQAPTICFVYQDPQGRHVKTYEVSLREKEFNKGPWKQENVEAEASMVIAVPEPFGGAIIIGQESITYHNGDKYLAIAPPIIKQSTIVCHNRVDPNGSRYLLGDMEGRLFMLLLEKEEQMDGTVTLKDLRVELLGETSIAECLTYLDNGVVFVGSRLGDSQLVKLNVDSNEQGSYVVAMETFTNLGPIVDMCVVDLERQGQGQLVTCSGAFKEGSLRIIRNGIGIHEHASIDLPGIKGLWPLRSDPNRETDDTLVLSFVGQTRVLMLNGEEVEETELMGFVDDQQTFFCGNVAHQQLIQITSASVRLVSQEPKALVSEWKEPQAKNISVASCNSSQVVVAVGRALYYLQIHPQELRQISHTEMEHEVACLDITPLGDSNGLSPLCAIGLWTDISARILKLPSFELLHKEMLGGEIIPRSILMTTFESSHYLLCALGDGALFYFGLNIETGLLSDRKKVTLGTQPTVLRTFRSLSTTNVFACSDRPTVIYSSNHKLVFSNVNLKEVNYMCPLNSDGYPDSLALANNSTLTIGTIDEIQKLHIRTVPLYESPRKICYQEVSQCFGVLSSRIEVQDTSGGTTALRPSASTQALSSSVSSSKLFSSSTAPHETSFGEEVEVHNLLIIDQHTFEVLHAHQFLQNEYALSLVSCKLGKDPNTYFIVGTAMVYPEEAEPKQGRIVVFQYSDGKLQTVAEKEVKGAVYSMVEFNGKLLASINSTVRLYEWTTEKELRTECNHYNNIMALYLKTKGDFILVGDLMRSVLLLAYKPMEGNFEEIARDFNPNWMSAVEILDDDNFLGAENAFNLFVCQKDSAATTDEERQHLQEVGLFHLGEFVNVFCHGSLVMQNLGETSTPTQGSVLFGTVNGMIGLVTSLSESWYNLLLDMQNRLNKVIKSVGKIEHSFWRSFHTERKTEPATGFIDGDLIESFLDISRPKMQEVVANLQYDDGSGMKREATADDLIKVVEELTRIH

| initiation of degradation (time course) ([1]; HAP1, dTAG-HA SLC1A5) | SMILES | temporal control of targeted SLC degradation [2] | degradation of dTAG-HA SLC1A5 ([1]; LOVO, SW620, CAKI and SW480 cell lines, 48 hours) | time for which target degradation is maintained [2] |
| --- | --- | --- | --- | --- |
| ≤ 6 h | CC[C@H](C(=O)N1CCCC[C@H]1C(=O)O[C@H](CCc1ccc(OC)c(OC)c1)c1ccccc1OCC(=O)NCCCOCCOCCOCCCNC(=O)COc1cccc2c1C(=O)N(C1CCC(=O)NC1=O)C2=O)c1cc(OC)c(OC)c(OC)c1 (stereo partly shown) [dTAG7] | reversible degradation |  |  |
|  | CC[C@H](C(=O)N1CCCC[C@H]1C(=O)O[C@H](CCc1ccc(OC)c(OC)c1)c1ccccc1OCC(=O)NCCCCCCOc1cccc2c1C(=O)N(C1CCC(=O)NC1=O)C2=O)c1cc(OC)c(OC)c(OC)c1 (stereo partly shown) [dTAG13] |  | degradation was observed | at least 72 h |
